The source of these data is patent US9102614B2, “Naphth-2-ylacetic acid derivatives to treat AIDS” (Gilead Sciences, Inc., priority 2010, dated 2015).

The subject of the test is HIV-IIIb. Briefly: Test A: Antiviral Assays in MT4 Cells. Type of test: cell-based. As for the experimental part:
Test A: Antiviral Assays in MT4 Cells
For the antiviral assay utilizing MT-4 cells, 0.4 μL of […] test concentration of 3-fold serially diluted compound in DMSO was added to 40 μL of cell growth medium (RPMI 1640, 10% FBS, 1% penicillin/Streptomycin, 1% L-Glutamine, 1% HEPES) in each well of 384-well assay plates (10 concentrations) in quadruplicate.
1 mL aliquots of 2×10e6 MT-4 cells are pre-infected for 1 and 3 hrs respectively, @37° C. with 25 μL (MT4) or of either cell growth medium (mock-infected) or a fresh 1:250 dilution of an HIV-IIIb concentrated ABI stock (0.004 m.o.i. for MT4 cells). Infected and uninfected cells are diluted in cell growth medium and 35 uL of 2000 (for MT4) cells is added to each well of the assay plates.
Assay plates were then incubated in a 37° C. incubator. After 5 days of incubation, 25 μl of 2× concentrated CellTiter-Glo™ Reagent (catalog #G7573, Promega Biosciences, Inc., Madison, Wis.) was added to each well of the assay plate. Cell lysis was carried out by incubating at room temperature for 2-3 min and then chemiluminescence was read using the Envision reader (PerkinElmer).

The mark [1] stands for this setting: Human immunodeficiency virus 1, IIIB, MT4, 120 h, MT-4 cells infected with HIV-IIIb (0.004 m.o.i.), 5 days of incubation, CellTiter-Glo chemiluminescence readout, read-out: EC50.
Where [2] appears, read: MT-4 cells infected with HIV-IIIb (0.004 m.o.i.), 5 days of incubation, CellTiter-Glo chemiluminescence readout, read-out: EC50.

Read-outs that look alike come from different tables or passages of the source.

On to `Cc1cc2c(Br)cccc2c(-c2ccc(Cl)cc2)c1C(OC(C)(C)C)C(=O)O` (stereo not drawn) [Compound 37, 2-(5-Bromo-1-(4-chlorophenyl)-3-methylnaphthalen-2-yl)-2-tert-butoxyacetic acid], for which the EC50 (commonly the midpoint of the concentration-response curve) under setting [1] was determined as 1200 nM.
Where the note is “Human immunodeficiency virus 1, IIIB, MT4, 120 h”, `Cc1cc2cc(F)c(F)cc2c(-c2ccc3c4c(ccnc24)CCO3)c1[C@H](OC(C)(C)C)C(=O)O` [Compound 108, (S)-2-tert-Butoxy-2-((R)-1-(2,3-dihydropyrano[4,3,2-de]quinolin-7-yl)-6,7-difluoro-3-methylnaphthalen-2-yl)acetic acid] came in with an EC50 of 28 nM.
On to `Cc1cc2cc(F)ccc2c(-c2ccc(Cl)cc2)c1C(OC(C)(C)C)C(=O)O` (stereo not drawn) [Compound 42, 2-tert-Butoxy-2-(1-(4-chlorophenyl)-6-fluoro-3-methylnaphthalen-2-yl)acetic acid], for which the EC50 under setting [1] was 110 nM.
Same read-out and setting: the same measure for `Cc1c(C(OC(C)(C)C)C(=O)O)c(-c2ccc(Cl)cc2)c2ccccc2c1-c1ccc(N)nc1` (stereo not drawn) [Compound 143, 2-(4-(6-Aminopyridin-3-yl)-1-(4-chlorophenyl)-3-methylnaphthalen-2-yl)-2-tert-butoxyacetic acid]: 56 nM; for `Cc1cc2ccccc2c(-c2cnc3ccccc3c2)c1[C@H](OC(C)(C)C)C(=O)O` [Compound 16, (S)-2-tert-Butoxy-2-(3-methyl-1-(quinolin-3-yl)naphthalen-2-yl)acetic acid]: 7000 nM.
On the same count and under the same terms, the same measure for `Cc1cc2ccc(C#CC3(N)CCCCC3)cc2c(-c2ccc(Cl)cc2)c1C(OC(C)(C)C)C(=O)O` (stereo not drawn) [Compound 84, 2-(7-((1-Aminocyclohexyl)ethynyl)-1-(4-chlorophenyl)-3-methylnaphthalen-2-yl)-2-tert-butoxyacetic acid]: 14 nM.
On the same count and under the same terms, as for `Cc1c(C(OC(C)(C)C)C(=O)O)c(-c2ccc(Cl)cc2)c2ccccc2c1C#CCN(C)C` (stereo not drawn) [Compound 131, 2-tert-Butoxy-2-(1-(4-chlorophenyl)-4-(3-(dimethylamino)prop-1-ynyl)-3-methylnaphthalen-2-yl)acetic acid], the figure is 62 nM; as for `Cc1cc2ccc(CCC3CC3)cc2c(-c2ccc(Cl)cc2)c1C(OC(C)(C)C)C(=O)O` (stereo not drawn) [Compound 92, 2-tert-Butoxy-2-(1-(4-chlorophenyl)-7-(2-cyclopropylethyl)-3-methylnaphthalen-2-yl)acetic acid], 7100 nM; as for `Cc1cc2ccccc2c(-c2ccc3c4c2NCCC4CCO3)c1[C@H](OC(C)(C)C)C(=O)O` (stereo partly drawn) [Compound 20, (2S)-2-tert-Butoxy-2-(1-((7R)-2,3,3a,4,5,6-hexahydropyrano[4,3,2de]quinolin-7-yl)-3-methylnaphthalen-2-yl)acetic acid], 93 nM.
As for `Cc1cc2cc(-c3ccncc3)ccc2c(-c2ccc(Cl)cc2)c1[C@H](OC(C)(C)C)C(=O)O` [Compound 53, (S)-2-tert-Butoxy-2-(1-(4-chlorophenyl)-3-methyl-6-(pyridin-4-yl)naphthalen-2-yl)acetic acid], under setting [1], the EC50 amounted to 120 nM.
On the same count and under the same terms, as for `CC(C)(C)O[C@H](C(=O)O)c1c(COc2cncnc2)cc2ccccc2c1-c1ccc(Cl)cc1` [Compound 26, (S)-2-tert-Butoxy-2-(1-(4-chlorophenyl)-3-((pyrimidin-5-yloxy)methyl)naphthalen-2-yl)acetic acid], the figure is 840 nM; as for `Cc1cc2c(-c3ccc(Cl)cc3)cccc2c(-c2ccc(Cl)cc2)c1C(OC(C)(C)C)C(=O)O` (stereo not drawn) [Compound 38, 2-(1,5-Bis(4-chlorophenyl)-3-methylnaphthalen-2-yl)-2-tert-butoxyacetic acid], 3400 nM.
`Cc1cc2c(Cl)c(C)ccc2c(-c2ccc3c4c(ccnc24)CCO3)c1[C@H](OC(C)(C)C)C(=O)O` [Compound 116, (S)-2-tert-Butoxy-2-((R)-5-chloro-1-(2,3-dihydropyrano[4,3,2-de]quinolin-7-yl)-3,6-dimethylnaphthalen-2-yl)acetic acid]: under setting [2], the EC50 is 16 nM.
Same read-out and setting: the same measure for `Cc1cc2cc(F)c(F)cc2c(-c2ccc3c4c(ccnc24)CCO3)c1[C@@H](OC(C)(C)C)C(=O)O` (atropisomer, axis not shown) [Compound 173]: 3200 nM.
On to `CC(C)(C)O[C@H](C(=O)O)c1c(COc2cccnc2)cc2ccccc2c1-c1ccc(Cl)cc1` [Compound 25, (S)-2-tert-Butoxy-2-(1-(4-chlorophenyl)-3-((pyridin-3-yloxy)methyl)naphthalen-2-yl)acetic acid], for which the EC50 under setting [1] is 26000 nM.
On the same count and under the same terms, as for `Cc1cc2cc(-c3cn(C)cn3)ccc2c(-c2ccc(Cl)cc2)c1[C@H](OC(C)(C)C)C(=O)O` [Compound 64, (S)-2-tert-Butoxy-2-(1-(4-chlorophenyl)-3-methyl-6-(1-methyl-1H-imidazol-4-yl)naphthalen-2-yl)acetic acid], the figure is 52 nM.
As for `Cc1cc2cc(C)c([C@H](OC(C)(C)C)C(=O)O)c(-c3ccc4c5c(ccnc35)CCO4)c2cc1F` [Compound 112, (S)-2-tert-Butoxy-2-((R)-1-(2,3-dihydropyrano[4,3,2-de]quinolin-7-yl)-7-fluoro-3,6-dimethylnaphthalen-2-yl)acetic acid], the EC50 under setting [2] was 9 nM.
As to `Cc1cc2ccccc2c(-c2ccc(Cl)cc2)c1[C@H](OC(C)(C)C)C(=O)O` [Compound 3K, (S)-2-tert-butoxy-2-(1-(4-chlorophenyl)-3-methylnaphthalen-2-yl)acetic acid], the EC50 under setting [1] came out at 56 nM.
As for `Cc1cc2cc(C(F)F)c(F)cc2c(-c2ccc3c4c(ccnc24)CCO3)c1[C@H](OC(C)(C)C)C(=O)O` [Compound 103, (S)-2-tert-Butoxy-2-((R)-6-(difluoromethyl)-1-(2,3-dihydropyrano[4,3,2-de]quinolin-7-yl)-7-fluoro-3-methylnaphthalen-2-yl)acetic acid], under setting [2], the 50% effective concentration (EC50) amounted to 26 nM.
Consider `Cc1cc2cc(C3CC3)c(F)cc2c(-c2ccc3c4c(ccnc24)CCO3)c1[C@H](OC(C)(C)C)C(=O)O` (atropisomer, axis not shown) [Compound 170], for which the EC50 under setting [1] is 29000 nM.
Take `COCc1cc2ccccc2c(-c2ccc(Cl)cc2)c1[C@H](OC(C)(C)C)C(=O)O` [Compound 28, (S)-2-tert-Butoxy-2-(1-(4-chlorophenyl)-3-(methoxymethyl)naphthalen-2-yl)acetic acid]: under setting [1], the EC50 was determined as 400 nM.
As to `Cc1cc2ccc(F)cc2c(-c2ccc3c4c(ccnc24)CCO3)c1[C@H](OC(C)(C)C)C(=O)O` (racemic) [Compound 123, (±)-(2S)-2-tert-Butoxy-2-((R)-1-(2,3-dihydropyrano[4,3,2-de]quinolin-7-yl)-7-fluoro-3-methylnaphthalen-2-yl)acetic acid], the EC50 under setting [2] was found to be 24 nM.
Turning to `Cc1cc2c(C#N)c(C)ccc2c(-c2ccc3c4c(ccnc24)CCO3)c1[C@H](OC(C)(C)C)C(=O)O` (atropisomer, axis not shown) [Compound 118, (S)-2-tert-Butoxy-2-((R)-5-cyano-1-(2,3-dihydropyrano[4,3,2-de]quinolin-7-yl)-3,6-dimethylnaphthalen-2-yl)acetic acid], the EC50 under setting [1] is 36 nM.
Take `Cc1cc2cc(C(F)F)ccc2c(-c2ccc3c4c(ccnc24)CCO3)c1[C@H](OC(C)(C)C)C(=O)O` [Compound 181, (S)-2-tert-butoxy-2-((R)-6-(difluoromethyl)-1-(2,3-dihydropyrano[4,3,2-de]quinolin-7-yl)-3-methylnaphthalen-2-yl)acetic acid]: the concentration giving a half-maximal response (EC50) under setting [1] was determined as 5 nM.
With `Cc1cc2c(F)c(C(F)F)ccc2c(-c2ccc3c4c(ccnc24)CCO3)c1[C@H](OC(C)(C)C)C(=O)O` [Compound 121, (S)-2-tert-Butoxy-2-((R)-6-(difluoromethyl)-1-(2,3-dihydropyrano[4,3,2-de]quinolin-7-yl)-5-fluoro-3-methylnaphthalen-2-yl)acetic acid], the EC50 under setting [2] is 14 nM.
Consider `Cc1cc2c(-c3cncnc3)cc(F)cc2c(-c2ccc3c4c(ccnc24)CCO3)c1[C@H](OC(C)(C)C)C(=O)O` (atropisomer, axis not shown) [Compound 153], for which, under setting [1], the EC50 turned out to be 11000 nM.
In the case of `Cc1c(C(OC(C)(C)C)C(=O)O)c(-c2ccc(Cl)cc2)c2ccccc2c1-c1cncnc1` (stereo not drawn) [Compound 139, 2-tert-Butoxy-2-(1-(4-chlorophenyl)-3-methyl-4-(pyrimidin-5-yl)naphthalen-2-yl)acetic acid], under setting [1], the EC50 is 10 nM.
As for `Cc1cc2c(F)c(Cl)ccc2c(-c2ccc3c4c(ccnc24)CCO3)c1[C@H](OC(C)(C)C)C(=O)O` [Compound 115, (S)-2-tert-Butoxy-2-((R)-6-chloro-1-(2,3-dihydropyrano[4,3,2-de]quinolin-7-yl)-5-fluoro-3-methylnaphthalen-2-yl)acetic acid], under setting [2], the EC50 is 37 nM.
`Cc1ccc2ccc(F)c(-c3c([C@H](OC(C)(C)C)C(=O)O)c(C)cc4ccccc34)c2n1` [Compound 17, (S)-2-(tert-Butoxy)-2-((S)-1-(7-fluoro-2-methylquinolin-8-yl)-3-methylnaphthalen-2-yl)acetic acid]: under setting [1], the EC50 is 7700 nM.
As for `Cc1cc2ccc(CCC(C)(C)O)cc2c(-c2ccc(Cl)cc2)c1C(OC(C)(C)C)C(=O)O` (stereo not drawn) [Compound 89, 2-tert-Butoxy-2-(1-(4-chlorophenyl)-7-(3-hydroxy-3-methylbutyl)-3-methylnaphthalen-2-yl)acetic acid], the concentration giving a half-maximal response (EC50) under setting [1] was determined as 280 nM.
